Data taken from paper PMC10223552 (Pharmaceuticals, 2023).
Read-outs that look alike come from different tables or passages of the source.

What was measured:
[1] = target: T1, hH3R (Homo sapiens, UniProt Q9Y5N1); test: biochemical; format: binding
T1 construct: expressed in transfected cells
Procedure: All newly synthesized compounds were evaluated as H3R antagonists/inverse agonists on the guinea pig ileum (gpH3R), stimulated electrically to induce contractions. The distinct affinity profile and species-dependent pharmacology of H3R ligands are known. […] Therefore, to compare species differences, all newly synthesized compounds were subjected to radioligand displacement assay in membrane fractions of HEK-293 cells stably expressing hH3R. […] Ex vivo assay for histamine H3R and H1R antagonists were measured on the isolated guinea pig ileum stimulated to contractions by histamine. The pA2-values were calculated according to Arunlakshana and Schild. The radioligand-displacement binding assay was performed in membrane fractions of HEK-293 cells stably expressing hH3R. Cell cultivation and membrane preparation was performed according to Kottke et al.. The Ki values were calculated from the IC50 values using the Cheng–Prusoff equation [37]. The statistical calculations were performed on –log(Ki). […] The inhibitory activities of novel ADS compounds were assessed in spectrophotometric Ellman’s assay using AChE from electric eel (eeAChE) and BuChE from horse serum (eqBuChE).
3.3 hH3R radioligand displacement binding assay.
The radioligand displacement binding assay was performed in membrane fractions of HEK-293 cells stably expressing hH3R. Cell cultivation and membrane preparation was performed according to Kottke et al. [T. Kottke, […]
radioligand displacement assay, radioactively labeled [3H]Nα-methylhistamine was used at a final concentration […]
The total assay volume was set to 200 µL. The compounds were tested in several appropriate concentrations between 100 µM and 0.1 nM. Pipetting was partly done by Freedom Evo® (Tecan).
The membrane fraction (20 […]
µg/well), test compounds and radiolabeled ligand were incubated for 90 minutes at 25 °C while shaking. The bound radioligand was separated from the free radioligand by filtration through GF/B filters pre-treated with 0.3 % (m/v) polyethyleneimine using a cell harvester. Radioactivity was determined by liquid scintillation counting using a MicroBeta® Trilux (Perkin Elmer). The data was obtained in duplicates in at least three independent experiments. Non-specific binding was subtracted from the raw data to calculate specific-binding values. The evaluation was performed with GraphPad Prism 6.1 (San Diego, CA, USA) using non-linear regression (one-site competition with a logarithmic scale). The Ki values were calculated from the IC50 values using the Cheng-Prusoff […]
equation. [C. […] The statistical calculations […]
were performed on –log(Ki).

[2] = target: T2, gpH1R (Cavia porcellus, UniProt P31389); test: Ex vivo assay for histamine H1R antagonists on guinea pig ileum stimulated by histamine (+atropine); details: gpH1R +Atropine pA2 ± sem, isolated guinea pig ileum, vs histamine, 0.05 µM atropine
T2 construct: from tissue; host or cells: isolated distal ileum of male guinea pigs
T2 sequence (P31389 whole entry): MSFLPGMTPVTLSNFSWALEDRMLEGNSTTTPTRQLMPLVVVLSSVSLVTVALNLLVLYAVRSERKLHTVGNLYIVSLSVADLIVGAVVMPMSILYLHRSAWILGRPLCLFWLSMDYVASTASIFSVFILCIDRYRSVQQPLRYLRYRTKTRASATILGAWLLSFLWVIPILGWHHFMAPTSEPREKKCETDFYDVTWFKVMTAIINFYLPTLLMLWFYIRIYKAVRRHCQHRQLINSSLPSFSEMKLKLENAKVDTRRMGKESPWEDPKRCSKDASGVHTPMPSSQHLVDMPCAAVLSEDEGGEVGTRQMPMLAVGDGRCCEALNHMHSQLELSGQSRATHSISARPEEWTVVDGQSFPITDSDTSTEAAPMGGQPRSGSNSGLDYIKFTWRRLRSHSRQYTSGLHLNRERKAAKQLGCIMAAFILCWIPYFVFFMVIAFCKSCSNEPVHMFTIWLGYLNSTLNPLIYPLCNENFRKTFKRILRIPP
Procedure: A second histamine receptor located in the guinea pig ileum is H1R. The antagonistic effect at H1R was measured on the isolated guinea pig ileum stimulated to contractions by histamine. To eliminate the impact of muscarinic receptors located on the tested tissue, 0.05 µM of atropine was added to the Krebs buffer.
(§1) Ex vivo assay for histamine H3R and H1R antagonists were measured on the isolated guinea pig ileum stimulated to contractions by histamine. The pA2-values were calculated according to Arunlakshana and Schild. The radioligand-displacement binding assay was performed in membrane fractions of HEK-293 cells stably expressing hH3R. Cell cultivation and membrane preparation was performed according to Kottke et al.. The Ki values were calculated from the IC50 values using the Cheng–Prusoff equation [37]. The statistical calculations were performed on –log(Ki). […] The inhibitory activities of novel ADS compounds were assessed in spectrophotometric Ellman’s assay using AChE from electric eel (eeAChE) and BuChE from horse serum (eqBuChE).
3.2 Ex vivo assay for histamine H1R receptor antagonists on guinea pig ileum.
Male guinea pigs, weighing 300-400 g were euthanized by a blow to the neck. A 20-30 cm length of the distal ileum, apart from the terminal 5 cm was rapidly removed and placed in phosphate buffer at room temperature (pH […]
Aldrich, St. Louis, MO, USA) (1·10-6 mol/L). The intraluminal content was rinsed and the isolated intestine was cut into 1.5-2 cm segments. The preparations were mounted isotonically in a 20 mL organ bath filled with Krebs […]
a constant load of 0.5 g (Hugo Sachs Hebel-Messvorsatz (Tl-2)/HF-modem; Hugo Sachs Elektronik, Hugstetten, Germany) connected to a pen recorder (Kipp & Zonen BD41, Delft, Holland). During an equilibration period of 40 min, the Krebs buffer was changed every 10 min. The first cumulative concentration-response curve was determined to histamine (Sigma-Aldrich, St. Louis, MO, USA) (10 nM - 10 mM) at increasing concentration spaced by three or 3.3-fold. The second to the fourth (or fifth) curve was measured in the presence of an increasing concentration of antagonist (incubation time 10 min). The pA2-values were calculated according to Arunlakshana and Schild. [Br J Pharmacol Chemother. […] Statistical analysis was carried out with the Students’ t-test. In all tests, a p<0.05 was considered statistically significant. The pA2 values were compared with the affinity

[3] = target: T3, gpH3R (Cavia porcellus, UniProt Q9JI35); test: Ex vivo assay for histamine H3R antagonists on electrically stimulated guinea pig ileum
T3 construct: from tissue; host or cells: isolated distal ileum of male guinea pigs
T3 sequence (Q9JI35 whole entry): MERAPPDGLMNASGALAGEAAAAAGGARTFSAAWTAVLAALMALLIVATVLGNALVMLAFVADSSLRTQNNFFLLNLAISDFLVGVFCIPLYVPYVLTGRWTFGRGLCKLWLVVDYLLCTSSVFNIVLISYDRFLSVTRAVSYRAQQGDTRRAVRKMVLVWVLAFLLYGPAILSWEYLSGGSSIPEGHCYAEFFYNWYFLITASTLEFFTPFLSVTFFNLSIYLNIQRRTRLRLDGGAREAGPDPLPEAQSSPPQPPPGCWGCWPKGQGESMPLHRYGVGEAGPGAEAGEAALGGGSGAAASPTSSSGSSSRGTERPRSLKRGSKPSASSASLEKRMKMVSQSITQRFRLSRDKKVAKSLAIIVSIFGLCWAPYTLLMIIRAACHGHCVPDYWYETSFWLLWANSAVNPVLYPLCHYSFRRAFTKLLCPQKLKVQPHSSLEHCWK
Procedure: All newly synthesized compounds were evaluated as H3R antagonists/inverse agonists on the guinea pig ileum (gpH3R), stimulated electrically to induce contractions. The distinct affinity profile and species-dependent pharmacology of H3R ligands are known. […] Therefore, to compare species differences, all newly synthesized compounds were subjected to radioligand displacement assay in membrane fractions of HEK-293 cells stably expressing hH3R.
as §1
3. Pharmacological assay results.
3.1. Ex vivo assay for histamine H3R receptor antagonists on guinea pig ileum.
Male guinea pigs, weighing 300-400 g were euthanized by a blow to the neck. Following this, a 20-30 cm length of the distal ileum, apart from the terminal 5 cm was rapidly removed and placed in phosphate buffer at room […]
indomethacin (Sigma-Aldrich, St. Louis, MO, USA) (1·10-6 mol/L). The intraluminal content was rinsed and the isolated intestine was cut into 1.5-2 cm segments. The preparations were mounted between two platinum electrodes […]
load of 1.0 g (Hugo Sachs Hebel-Messvorsatz (Tl-2)/HF-modem; Hugo Sachs Elektronik, Hugstetten, Germany) connected to a pen recorder (Kipp & Zonen BD41, Delft, Holland). During an equilibration period of 60 min, the Krebs buffer was changed every 10 min. The preparations were then continuously stimulated at 15-20 V at a frequency of 0.1 Hz for a duration of 0.5 ms, with rectangular-wave electrical pulses (Grass Stimulator S-88; Grass Instruments Co., Quincy, Massachusetts, USA). […] Five minutes […]
before (R)-(−)-α-methylhistamine (RAMH) (Toronto Research Chemicals Inc., North York, Canada), […]
added. The first cumulative concentration-response curve was determined to RAMH (10 nM – 10 mM) at an […]
The second to fourth curve was measured against increasing antagonist concentration (incubation time 20 min). The pA2-values were calculated according to Arunlakshana and Schild. [Br J Pharmacol Chemother. […] Statistical analysis was carried out with the Students’ t-test. In all tests, a p<0.05 was considered statistically significant. The pA2 values were compared with the affinity of thioperamide (Sigma-Aldrich, St. Louis, MO, USA).

[4] = target: eqBuChE (Equus caballus, UniProt P81908); test: biochemical; details: for inhibition at 10 µM: read-out: eqBuChE % inh. (10 µM) ± SD; for IC50: read-out: eqBuChE IC50 ± sem
eqBuChE, sequence (P81908 whole entry): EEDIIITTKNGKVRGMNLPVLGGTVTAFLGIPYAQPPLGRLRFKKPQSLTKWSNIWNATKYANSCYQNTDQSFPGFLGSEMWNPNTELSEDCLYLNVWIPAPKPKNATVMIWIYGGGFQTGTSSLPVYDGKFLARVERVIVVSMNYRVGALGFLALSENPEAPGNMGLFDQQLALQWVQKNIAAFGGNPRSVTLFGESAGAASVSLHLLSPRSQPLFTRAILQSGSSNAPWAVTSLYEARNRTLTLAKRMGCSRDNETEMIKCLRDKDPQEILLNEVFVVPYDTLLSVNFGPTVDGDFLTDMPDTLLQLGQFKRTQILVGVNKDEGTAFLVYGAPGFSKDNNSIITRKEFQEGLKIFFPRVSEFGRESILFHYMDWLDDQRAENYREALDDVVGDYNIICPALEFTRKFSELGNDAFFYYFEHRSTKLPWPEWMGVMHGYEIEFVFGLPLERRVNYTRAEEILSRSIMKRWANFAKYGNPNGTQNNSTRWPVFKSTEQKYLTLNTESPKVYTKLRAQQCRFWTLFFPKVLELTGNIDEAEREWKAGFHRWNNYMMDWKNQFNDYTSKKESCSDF

[5] = target: T4, eeAChE (Electrophorus electricus, UniProt O42275); test: biochemical; set-up: species or system electric eel; details: for inhibition at 10 µM: read-out: eeAChE % inh. (10 µM) ± SD
T4 construct: purchased Sigma–Aldrich (Steinheim, Germany)
T4 sequence (O42275 24-633): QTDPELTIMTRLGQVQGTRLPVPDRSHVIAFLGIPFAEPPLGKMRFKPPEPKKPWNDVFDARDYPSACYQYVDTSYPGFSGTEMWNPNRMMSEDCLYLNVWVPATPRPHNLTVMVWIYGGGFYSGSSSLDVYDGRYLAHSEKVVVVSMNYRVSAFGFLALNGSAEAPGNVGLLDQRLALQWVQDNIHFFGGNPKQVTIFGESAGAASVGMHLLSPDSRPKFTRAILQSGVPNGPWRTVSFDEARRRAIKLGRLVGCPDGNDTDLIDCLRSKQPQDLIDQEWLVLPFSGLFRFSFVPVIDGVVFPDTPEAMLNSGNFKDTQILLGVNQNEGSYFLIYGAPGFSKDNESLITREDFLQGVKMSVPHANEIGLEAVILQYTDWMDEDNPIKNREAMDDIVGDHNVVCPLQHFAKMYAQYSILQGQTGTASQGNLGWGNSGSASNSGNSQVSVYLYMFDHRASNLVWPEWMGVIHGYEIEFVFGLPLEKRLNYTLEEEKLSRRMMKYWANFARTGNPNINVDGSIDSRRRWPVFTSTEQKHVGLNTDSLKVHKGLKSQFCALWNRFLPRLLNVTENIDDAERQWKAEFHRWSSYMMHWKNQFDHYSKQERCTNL

[6] = mean ± sem, at least three independent experiments, read-out: hH3R -log(Ki) ± sem (converted)
[7] = hH3R -log(Ki) ± sem, mean ± sem, at least three independent experiments
[8] = isolated guinea pig ileum, vs RAMH, read-out: gpH3R pA2 ± sem (converted)

T1 sequence (Q9Y5N1 whole entry): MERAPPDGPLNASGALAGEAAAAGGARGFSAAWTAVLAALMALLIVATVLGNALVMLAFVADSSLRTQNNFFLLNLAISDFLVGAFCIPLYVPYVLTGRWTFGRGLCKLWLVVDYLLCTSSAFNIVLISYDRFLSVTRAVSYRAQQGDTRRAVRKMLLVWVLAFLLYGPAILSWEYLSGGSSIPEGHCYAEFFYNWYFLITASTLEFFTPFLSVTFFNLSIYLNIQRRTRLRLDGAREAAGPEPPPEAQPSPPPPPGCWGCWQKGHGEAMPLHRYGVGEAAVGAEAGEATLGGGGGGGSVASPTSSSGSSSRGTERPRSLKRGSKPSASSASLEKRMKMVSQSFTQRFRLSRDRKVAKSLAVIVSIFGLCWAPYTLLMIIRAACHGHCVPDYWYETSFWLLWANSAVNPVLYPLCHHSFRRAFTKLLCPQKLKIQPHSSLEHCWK

Row | SMILES | Ki [1, 6] | Kb [2] | gpH3R pA2 ± sem ([3]; isolated guinea pig ileum, vs RAMH, 20 min) | inhibition at 10 µM [4] | IC50 [4] | Kb [3] | inhibition at 10 µM [5] | Ki [1, 7] | IC50 ([5]; eeAChE IC50 ± sem) | Kb [3, 8] | Ki ([1]; hH3R Ki) | Kd ([1]; radioligand used at 2 nM)
1 | N=C(N)N(CCCCN1CCN(CCCCCCCOc2ccccc2)CC1)Cc1ccc(C(F)(F)F)cc1 [ADS1020] | 0.437 µM | 0.871 µM | 8.49 ± 0.05 |  |  |  |  |  |  |  |  | 
2 | N=C(N)N(CCCCN1CCN(CCCOCCCc2ccc(Cl)cc2)CC1)Cc1ccccc1 [ADS10278] | 0.324 µM | 0.117 µM |  | 76.6 ± 1.3% | 2 ± 0.1 µM | 0.0148 µM | 44 ± 0.9% |  |  |  |  | 
3 | N=C(N)N(CCCCN1CCN(CCCOCCCc2ccc(Cl)cc2)CC1)Cc1ccc(C(F)(F)F)cc1 [ADS10279] |  | 0.135 µM |  | 67.5 ± 0.5% | 4.8 ± 0.1 µM | 0.00525 µM | 47.4 ± 1.2% | 1.07 µM |  |  |  | 
4 | N=C(N)N(CCCc1ccc(Cl)cc1)CCCN1CCCCC1 [ADS10292] |  | 1.2 µM |  | 54.3 ± 4.7% | 8.4 ± 0.2 µM | 0.0457 µM | 50.6 ± 0.8% | 2.69 µM | 10.9 µM |  |  | 
5 | N=C(NCCCc1ccc(Cl)cc1)NCCCN1CCCCC1 [ADS10298] |  | 0.132 µM |  | 20.3 ± 0.8% |  |  | 39.8 ± 2.6% | 0.537 µM |  | 0.0417 µM |  | 
6 | N=C(N)N(CCCCN1CCCCC1)CCCc1ccc(Cl)cc1 [ADS10300] |  | 2.51 µM |  | 75.2 ± 0.4% | 2.4 ± 0.1 µM | 0.0479 µM | 40.7 ± 1.8% | 0.603 µM |  |  |  | 
7 | N=C(NCCCCN1CCCCC1)NCCCc1ccc(Cl)cc1 [ADS10301] |  | 0.347 µM |  | 60.4 ± 0.7% | 5.9 ± 0.1 µM | 0.0229 µM | 11.3 ± 0.4% | 0.191 µM |  |  | < 0.2 µM | 
8 | N=C(NCCCCc1ccc(Cl)cc1)NCCCN1CCCCC1 [ADS10306] |  | 0.0676 µM |  | 89.4 ± 0.1% | 1.6 µM | 0.0479 µM | 17.8 ± 0.7% | 0.195 µM |  |  | < 0.2 µM | 
9 | N=C(N)N(CCCCc1ccc(Cl)cc1)CCCN1CCCCC1 [ADS10312] |  | 1.38 µM |  | 72.6 ± 5.2% | 3.5 ± 0.1 µM | 0.0933 µM | 22.2 ± 3.9% | 0.525 µM |  |  |  | 
10 | N=C(N)N(CCCCN1CCN(CCCOCCCc2ccccc2)CC1)Cc1ccccc1 [ADS10349] | 2.51 µM | 0.347 µM |  | 32.4 ± 4.2% |  | 0.0457 µM | 6.4 ± 1.3% |  |  |  |  | 
11 | N=C(N)N(CCCCN1CCN(CCCOCCCc2ccccc2)CC1)Cc1ccc(C(F)(F)F)cc1 [ADS10350] |  | 0.269 µM |  | 28.3 ± 3.2% |  |  | 1 ± 0.2% | 2.69 µM |  | 0.0288 µM |  | 
12 | N=C(N)N(CCCCN1CCN(CCCCCCCOc2ccc(Cl)cc2)CC1)Cc1ccc(C(F)(F)F)cc1 [ADS10376] |  | 0.214 µM |  | 71.4 ± 0.6% | 4.9 ± 0.2 µM | 0.00708 µM | 27.8 ± 5.1% | 0.398 µM |  |  |  | 
13 | N=C(N)N(CCCCN1CCN(CCCCCCCOc2ccc(Cl)cc2)CC1)Cc1ccccc1 [ADS10377] |  | 0.123 µM |  | 84.6 ± 1.5% | 1.9 ± 0.1 µM | 0.0151 µM | 34.3 ± 2.6% | 0.282 µM |  |  |  | 
14 | S=C(NC1CCCCC1)N1CCC(c2cnc[nH]2)CC1 [Thioperamide, reference compound] |  |  |  |  |  |  |  |  |  | 0.00155 µM |  | 
15 | CNCCc1cnc[nH]1 [[3H]Nα-methylhistamine, reference compound] |  |  |  |  |  |  |  |  |  |  |  | 0.00308 µM
